Results reported in patent US5541187A, “6-heterocycyclyl pyrazolo[3,4-d]pyrimidin-4-ones and compositions and method of use thereof” (Sterling Winthrop Inc., priority 1993, dated 1996).
Where “and” joins values, the source holds several entries; their conditions need not be identical. Equal values may be shown once.

Tested on: cGMP-PDE I
Assay: cGMP-PDE I inhibitory activity (cyclic nucleotide hydrolysis, isolated PDE isozyme)
Format: biochemical, various animal species and man
Details: for IC50: values marked * are from two separate experimental runs
Experimental: Multiple isozymic forms of cyclic nucleotide phosphodiesterase (PDE) have been identified in mammalian cells. […] Elevation of intracellular cGMP in vascular smooth muscle triggers a cascade of events that leads to a reduction in muscle tone while elevations in renal tubule cell cGMP stimulates natriuresis and diuresis. Vascular smooth muscle and renal cells contain a phosphodiesterase isozyme that has a low Km (1 μM) for the hydrolysis of cGMP. This isozyme has been referred to as the cGMP-PDE or cGMP-PDE I since it elutes from an anion-exchange sepharose resin in the first peak of PDE activity at a sodium acetate concentration between 150-200 mM. Thus inhibition of the cGMP-PDE isozyme is a viable subcellular mechanism by which increases in cGMP can produce a reduction in total peripheral resistance and a stimulation of natriuresis and diuresis. The development of cGMP-PDE inhibitors represents an approach for the discovery of agents useful for treating heart failure and hypertension. For example, compounds having high inhibitory potency for the cGMP-PDE are expected to lower blood pressure and induce natriuresis and diuresis.
The cGMP-PDE and other PDE isozymes were isolated from cardiovascular tissues (heart and aorta) of various animal species and man by anion-exchange and affinity chromatography as described by Silver et al., Sec. Messeng. Phos. 13:13-25, 1991; PDE activity, in the presence and absence of test compounds was determined essentially as described by Thompson et al., Adv. Cyclic Nucleotide Res. 10:69-92. To determine the potency and selectivity of compounds as PDE inhibitors, compounds are screened for their effect on cyclic nucleotide hydrolysis at 10 μM. If ≥50% inhibition of PDE activity is observed, an IC50 value (concentration of compound causing 50% reduction in PDE activity) and corresponding 95% confidence intervals are generated. The IC50 values are calculated from concentration-response curves as described by Tallarida and Murray, Manual of Pharmacologic Calculations with Computer Programs, Procedure 8, Graded Dose-response, pp. 14-19, Springer-Verlag, N.Y., 1981.

| Compound | IC50 | Percent Inhibition cGMP-PDE I (1 μM) [%] | Percent Inhibition cGMP-PDE I (10 μM) [%] | other results |
| --- | --- | --- | --- | --- |
| Cc1nn(C2CCOC2)c2nc(-c3ccncc3)[nH]c(=O)c12 (centres unmarked) [Example 101, 1-(3-Tetrahydrofuranyl)-3-methyl-6-(4-pyridyl)-pyrazolo-[3,4-d]pyrimidin-4-one-1/4 hydrate] | 1.78 µM |  |  |  |
| O=c1[nH]c(-c2ccncc2)nc2c1cnn2C1CCCC1 [Example 71] | 3.7 µM |  |  |  |
| Cc1[nH]n(C2CCCC2)c2nc(C3CCN(C(=O)C(F)(F)F)CC3)nc(=O)c1-2 [Example 116, 1-Cyclopentyl-3-methyl-6-(1-trifluoroacetyl-4-piperidinyl)pyrazolo[3,4-d]pyrimidin-4-one] |  | 34 |  |  |
| CCc1[nH]n(C2CCCC2)c2nc(-c3ccnc4ccccc34)nc(=O)c1-2 [Example 7c, 1-Cyclopentyl-3-ethyl-6-(4-quinolinyl)-pyrazolo[3,4-d]pyrimidin-4-one] | 0.19 µM |  |  |  |
| Cc1[nH]n(Cc2ccc(C(N)=O)cc2)c2nc(-c3ccncc3)nc(=O)c1-2 [Example 110, 1-(4-Carbamoylphenylmethyl)-3-methyl-6-(4-pyridyl)pyrazolo[3,4-d]pyrimidin-4-one] |  | 23 | 74 |  |
| Cc1n[nH]c2nc(-c3ccncc3)[nH]c(=O)c12 [Example 76] |  | 0 | 24 |  |
| Cc1nn(Cc2ccc(C#N)cc2)c2nc(-c3ccncc3)[nH]c(=O)c12 [Example 85] |  |  | 42 |  |
| CCc1[nH]n(C2CCCC2)c2nc(-c3ccncc3OC3CCC3)nc(=O)c1-2 [Example 130B, 1-Cyclopentyl-3-ethyl-6-(3-cyclobutyloxy-4-pyridyl)pyrazolo[3,4-d]pyrimidin-4-one] |  |  |  | Percent Inhibition cGMP-PDE I (0.01 μM): 91% |
| CC(=O)N1CCC(c2nc3n(C4CCCC4)[nH]c(C)c-3c(=O)n2)CC1 [Example 115, 1-Cyclopentyl-3-methyl-6-(1-acetyl-4-piperidinyl)pyrazolo[3,4-d]pyrimidin-4-one] |  | 6 | 51 |  |
| CCc1[nH]n(C2CCCC2)c2nc(-c3cccc(C)n3)nc(=O)c1-2 [Example 2f, 1-cyclopentyl-3-ethyl-6-(6-methyl-2-pyridyl) -pyrazolo-[3,4-d]pyrimidin-4-one] |  | 7 | 53 |  |
| O=c1[nH]c(-c2ccncc2)nc2c1c(Cl)nn2C1CCCC1 [Example 72] | 1.15 µM |  |  |  |
| CCCOc1cnccc1-c1nc2n(C3CCCC3)[nH]c(CC)c-2c(=O)n1 [Example 133c, 1-Cyclopentyl-3-ethyl-6-(3-propoxy-4-pyridyl)pyrazolo[3,4-d]pyrimidin-4-one] |  |  |  | Percent Inhibition cGMP-PDE I (0.01 μM): 82% |
| O=c1[nH]c(-c2ccncc2)nc2c1c(C(F)(F)F)nn2C1CCCC1 [Example 96] | 0.67 µM |  |  |  |
| Cc1nn(C2CCCC2O)c2nc(-c3ccncc3)[nH]c(=O)c12 (centres unmarked) [Example 17e] | 2.3 µM |  |  |  |
| CC(C)(C)n1ncc2c(=O)[nH]c(-c3ccncc3)nc21 [Example 92] | 0.68 µM |  |  |  |
| CCc1[nH]n(C2CCCC2)c2nc(-c3ccncc3OCCOC)nc(=O)c1-2 [Example 131b, 1-Cyclopentyl-3-ethyl-6-(3-(2-methoxyethoxy)-4-pyridyl)pyrazolo[3,4-d]pyrimidin-4-one] |  | 86 |  | Percent Inhibition cGMP-PDE I (0.01 μM): 22%; Percent Inhibition cGMP-PDE I (0.1 μM): 61% |
| CN(C)c1[nH]n(C2CCCC2)c2nc(-c3ccncc3)nc(=O)c1-2 [Example 20c, 1-Cyclopentyl-3-dimethylamino-6-(4-pyridyl) pyrazolo[3,4-d]pyrimidin-4-one] |  | 36 | 70 |  |
| Cc1[nH]n(Cc2cccc(C(=O)O)c2)c2nc(-c3ccncc3)nc(=O)c1-2 [Example 112, 1-(3-Carboxyphenylmethyl)-3-methyl-6-(4-pyridyl)-pyrazolo[3,4-d]pyrimidin-4-one] |  | 4 | 52 |  |
| Cc1nn(Cc2ccccc2)c2nc(-c3ccncc3)[nH]c(=O)c12 [Example 77] |  | 13 | 80 |  |
| O=c1[nH]c(-c2ccncc2)nc2c1c([N+](=O)[O-])nn2C1CCCC1 [Example 74] |  | 0 | 32 |  |

| Compound | IC50 | Percent Inhibition cGMP-PDE I (1 μM) [%] | Percent Inhibition cGMP-PDE I (10 μM) [%] | other results |
| --- | --- | --- | --- | --- |
| Cc1ccccc1Cn1nc(C)c2c(=O)[nH]c(-c3ccncc3)nc21 [Example 87] | 2.7 µM and 3.6 µM |  |  |  |
| CC(C)(C)n1[nH]c(Nc2ccccc2)c2c(=O)nc(-c3ccncc3)nc1-2 [Example 6e, 1-tert-Butyl-3-phenylamino-6-(4-pyridyl)-pyrazolo[3,4-d]-pyrimidin-4-one] | 0.62 µM |  |  |  |
| Cc1nn(CC2CCCC2)c2nc(-c3ccncc3)[nH]c(=O)c12 [Example 89] |  | 17 | 77 |  |
| CCc1[nH]n(C2CCCC2)c2nc(-c3ccc4nccn4c3)nc(=O)c1-2 [Example 16c, 1-Cyclopentyl-3-ethyl-6-(6-imidazo[1,2-a]pyridinyl)pyrazolo[3,4-d]pyrimidin-4-one] | 0.78 µM | 69 |  | Percent Inhibition cGMP-PDE I (0.1 μM): 35% |
| Cc1[nH]n(C2CCC2)c2nc(-c3ccncc3)nc(=O)c1-2 [Example 102, 1-Cyclobutyl-3-methyl-6-(4-pyridyl)-pyrazolo-[3,4-d]pyrimidin-4-one] | 1.9 µM |  |  |  |
| CCc1[nH]n(C2CCCC2)c2nc(-c3ccnc(Cl)c3)nc(=O)c1-2 [Example 125b, 1-Cyclopentyl-3-ethyl-6-(2-chloro-4-pyridyl)pyrazolo[3,4-d]pyrimidin-4-one] | 0.58 µM | 59 |  | Percent Inhibition cGMP-PDE I (0.1 μM): 27% |
| CCN(CC)CCCn1nc(C)c2c(=O)[nH]c(-c3ccncc3)nc21 [Example 99, 1-(3-Diethylaminopropyl)-3-methyl-6-(4-pyridyl)pyrazolo[3,4-d]pyrimidin-4-one. 1/2 hydrate] |  | 0 | 12 |  |
| Cc1nn(C2CC3CCC2C3)c2nc(-c3ccncc3)[nH]c(=O)c12 (centres unmarked) [Example 91] | 0.85 µM |  |  |  |
| CSc1[nH]n(C2CCCC2)c2nc(-c3ccncc3)nc(=O)c1-2 [Example 19c, 1-Cyclopentyl-3-methylthio-6-(4-pyridyl)pyrazolo[3,4-d]pyrimidin-4-one] |  | 32 | 74 |  |
| Cc1nn(Cc2cccc(C#N)c2)c2nc(-c3ccncc3)[nH]c(=O)c12 [Example 86] |  |  | 41 |  |
| Cc1[nH]n(C2CCCC2)c2nc(-c3cc[nH]c(=O)c3)nc(=O)c1-2 [Example 126b, 1-Cyclopentyl-3-methyl-6-(2-oxo-4-pyridyl)pyrazolo[3,4-d]pyrimidin-4-one] |  | 32 |  | Percent Inhibition cGMP-PDE I (0.1 μM): 0% |
| CCc1nn(C2CCCC2)c2nc(-c3cccn4ccnc34)[nH]c(=O)c12 [Example 114c, 1-cyclopentyl-3-ethyl-6-(8-imidazo[1,2-a]pyridine)pyrazolo[3,4-d]pyrimidin-4-one methanesulfonate] |  | 5 | 52 |  |
| Cc1nn(CCCCCCC(=O)O)c2nc(-c3ccncc3)[nH]c(=O)c12 [Example 79] | 4.7 µM |  |  |  |
| CCc1nn(C2CCCC2)c2nc(-c3cc(C)nc(-n4ccnc4)c3)[nH]c(=O)c12 [Example 120, 1-Cyclopentyl-3-ethyl-6-[2-(1-imidazolyl)-6-methyl-4-pyridyl]pyrazolo[3,4-d]pyrimidin-4-one-1/4 hydrate] |  | 60 |  | Percent Inhibition cGMP-PDE I (0.1 μM): 16% |
| CCc1nn(C2CCCC2)c2nc(C3CCN(C)c4ccccc43)[nH]c(=O)c12 (centres unmarked) [Example 10b, 1-cyclopentyl-3-ethyl-6-(1,2,3,4-tetrahydro-4-N-methyl-quinolinyl)-pyrazolo-[3,4-d]pyrimidin-4-one] |  | 62 |  | Percent Inhibition cGMP-PDE I (0.1 μM): 24% |
| Cc1[nH]n(C)c2nc(-c3ccncc3)nc(=O)c1-2 [Example 103, 1,3-Dimethyl-6-(4-pyridyl)-pyrazolo-[3,4-d]pyrimidin-4-one] |  | 0 | 19 |  |
| CCc1[nH]n(C2CCCC2)c2nc(C3CCNC4CCCCC43)nc(=O)c1-2 (centres unmarked) [Example 8, 1-Cyclopentyl-3-ethyl-6-(perhydro-4-quinolinyl)-pyrazolo[3,4-d]pyrimidin-4-one] |  | 31 | 67 |  |
| CCc1[nH]n(C(C)(C)C)c2nc(-c3ccncc3OC)nc(=O)c1-2 [Example 136, 1-tert-Butyl-3-ethyl-6-(3-methoxy-4-pyridyl)pyrazolo[3,4-d]pyrimidin-4-one] |  | 73 |  | Percent Inhibition cGMP-PDE I (0.01 μM): 28%; Percent Inhibition cGMP-PDE I (0.1 μM): 39% |
| Cc1[nH]n(Cc2ccc([N+](=O)[O-])cc2)c2nc(-c3ccncc3)nc(=O)c1-2 [Example 105, 1-(4-Nitrophenylmethyl)-3-methyl-6-(4-pyridyl)pyrazolo[3,4-d]pyrimidin-4-one] | 6.7 µM |  |  |  |
| Cc1nn(CCCCCCCC(=O)O)c2nc(-c3ccncc3)[nH]c(=O)c12 [Example 84] | 0.61 µM |  |  |  |
